These results are taken from PMC8522630 (Cell, 2021).

Experiment [1] concerns antigen-specific CD8 T cells in KP lung adenocarcinoma. In kind it is in vivo, mouse. The settings on record: 5–6 weeks; for CD8 T cell response magnitude, antigen expressed alone: LucA (mALG8) or LucL (mLAMA4); for proportion of TCF1+ progenitor cells, antigens co-expressed / CD8 T cell response magnitude, antigens co-expressed: LucAL; for CD8 T cell response magnitude, antigens co-expressed: compared to the single-antigen setting.

Experiment [2] addresses H-2K^b (Mus musculus, UniProt P01901, A160C/Y105C). In words: Differential Scanning Fluorimetry of pMHC thermal melting. In kind it is binding. To be noted: DSF, 50 mM HEPES pH 7.5, SYPRO Orange; Tm averaged from 3 experiments; compared to mLAMA4. (DSF heats the sample and reads unfolding from a dye or from intrinsic fluorescence.)

Chain of H-2K^b (P01901 22-295 Y105C/A160C limits assumed): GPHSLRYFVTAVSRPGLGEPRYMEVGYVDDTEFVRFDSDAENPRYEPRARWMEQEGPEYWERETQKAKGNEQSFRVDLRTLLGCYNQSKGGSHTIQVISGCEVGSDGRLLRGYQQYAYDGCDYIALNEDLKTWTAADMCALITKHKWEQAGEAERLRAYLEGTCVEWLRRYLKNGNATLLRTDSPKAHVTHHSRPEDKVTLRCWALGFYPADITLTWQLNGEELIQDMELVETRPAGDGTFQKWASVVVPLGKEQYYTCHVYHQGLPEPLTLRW
Chain of H-2K^b (P61769 21-119 partner): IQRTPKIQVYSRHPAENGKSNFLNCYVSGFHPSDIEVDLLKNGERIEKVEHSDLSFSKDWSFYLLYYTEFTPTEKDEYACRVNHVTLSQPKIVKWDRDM

Take ITYTWTRL [mALG8]: in experiment [1], the “CD8 T cell response magnitude, antigen expressed alone” value was “responses of equivalent magnitude”; the “proportion of TCF1+ progenitor cells, antigens co-expressed” value is “increased for both responses (Figure S3M), trending towards greater enrichment for the mALG8 response”; the “CD8 T cell response magnitude, antigens co-expressed” value is “neither response became dominant in terms of T cell expansion, but both decreased in magnitude compared to the single-antigen setting”. Besides, the “pMHC complex stability (Koff), relative to mLAMA4” value in experiment [2] was “similar, but slightly lower affinity and stability”.

In the case of VGFNFRTL [mLAMA4], in experiment [1], the “CD8 T cell response magnitude, antigen expressed alone” value is “responses of equivalent magnitude”; the “proportion of TCF1+ progenitor cells, antigens co-expressed” value is on record as “increased for both responses”; the “CD8 T cell response magnitude, antigens co-expressed” value is “neither response became dominant in terms of T cell expansion, but both decreased in magnitude compared to the single-antigen setting”.
